In this assay the target is IDO1 (Homo sapiens, UniProt P14902). As to the kind of experiment: IDO1 Cellular Assay in HeLa Cells Stimulated with IFNγ. The class given is cell-based. The conditions noted are these: IFNγ 100 ng/mL, 300 uM L-tryptophan, about 48 hours, fluorescence readout, read-out: IDO1 HELA Cell Assay, IC50. How it is done: Biological Assays IDO1 Cellular Assay in HeLa Cells Stimulated with IFNγ
HeLa cells were cultured in complete HeLa culture medium (90% EMEM, 10% heat-inactivated fetal bovine serum) and expanded to about 1×10^9 cells. The cells were then collected and frozen down at 1×10^7 cells/vial in 1 mL frozen medium (90% complete HeLa culture medium, 10% DMSO).
Compounds to be tested were serially diluted in ten 3-fold steps in DMSO starting from 10 mM DMSO stocks in Echo low volume plate(s). Compound dilutions or DMSO alone were then dispensed from the dilution plate(s) into Greiner black 384-well assay plate(s) (catalog #781086, 50 nL/well) using an Echo 550 acoustic liquid handler (Labcyte).
Frozen HeLa cells were thawed and transferred into HeLa assay medium (99% complete HeLa culture medium, 1% Pen/Strep) with 20 mL medium/vial of cells. The cells were spun down at 250 g in a table top centrifuge for 5 min and suspended in same volume of HeLa assay medium. The cells were then counted and adjusted to a density of 2×10^5 cells/mL in HeLa assay medium. Sterile L-tryptophan were added to the cells with final concentration of 300 uM L-tryptophan. A small aliquot (2 mL/plate) of HeLa cells were set aside and were not treated with IFNγ, to serve as the Max-E control.
HeLa cells with and without IFNγ were dispensed to the respective wells of 384-well assay plates containing the compounds. The plates were incubated for about 48 hours at a 37° C., 5% CO2 incubator. Afterwards, 12 μL of 0.5 M methyl isonipecotate in dimethyl sulfoxide were added into each well and the plates were sealed and incubated at 37° C. without CO2 overnight. The plates were centrifuged for 1 min at 200×g. The resulting fluorescence was measured in a Spectramax plate reader (Molecular Devices) with a 400 nm excitation filter and a 510 nm emission filter.
The fluorescence intensity of each well was corrected for the background observed in wells with non-IFNγ-treated cells and was expressed as a fraction of the intensity observed in wells of IFNγ-treated cells and DMSO only. Potencies were calculated by linear least squares fit to the four parameter logistic IC50 equation.
Compounds disclosed herein generally have IC50 of about 0.1 nM to about 20,000 nM, or more specifically, about 1 nM to about 10,000 nM, or more specifically, about 5 nM to about 5,000 nM, or more specifically, about 10 nM to about 1,000 nM, or still more specifically, about 10 nM to about 500 nM.

Molecules are shown by their SMILES.

Chain of IDO1 (P14902 whole entry): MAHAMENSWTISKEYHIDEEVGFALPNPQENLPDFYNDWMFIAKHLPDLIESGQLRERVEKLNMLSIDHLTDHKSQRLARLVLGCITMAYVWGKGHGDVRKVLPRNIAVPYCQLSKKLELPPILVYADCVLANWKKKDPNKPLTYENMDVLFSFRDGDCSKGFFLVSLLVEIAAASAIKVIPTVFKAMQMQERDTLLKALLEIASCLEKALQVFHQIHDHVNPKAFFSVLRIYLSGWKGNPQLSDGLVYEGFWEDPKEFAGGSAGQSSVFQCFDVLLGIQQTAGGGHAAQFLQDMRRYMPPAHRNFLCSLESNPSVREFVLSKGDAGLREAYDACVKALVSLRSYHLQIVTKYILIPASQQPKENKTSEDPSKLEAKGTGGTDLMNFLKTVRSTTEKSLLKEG

One may read the IC50 as the point on the concentration scale where inhibition reaches its midpoint. For the molecule `Cc1cccc(C2CCN(C(=O)Cn3nc(C(=O)N4CCC(O)CC4)c4c3CCC4)CC2(F)F)c1C` (single isomer, unassigned) [Example 15, 1-(4-(2,3-dimethylphenyl)-3,3-difluoropiperidin-1-yl)-2-(3-(4-hydroxypiperidine-1-carbonyl)-5,6-dihydrocyclopenta[c]pyrazol-1(4H)-yl)ethanone], the IC50 came out at 11.6 nM.

Regarding `Cc1c(C2CCN(C(=O)Cn3nc(C(=O)N4CCC(O)(CF)CC4)c4c3C[C@H]3C[C@@H]43)CC2)cccc1C(F)(F)F` [Example 1, 2-((3bR,4aR)-3-(4-(fluoromethyl)-4-hydroxypiperidine-1-carbonyl)-3b,4,4a,5-tetrahydro-1H-cyclopropa[3,4]cyclopenta[1,2-c]pyrazol-1-yl)-1-(4-(2-methyl-3-(trifluoromethyl)phenyl)piperidin-1-yl)ethanone], the IC50 turned out to be 0.8 nM. Regarding `Cc1c(C2CCN(C(=O)Cn3nc(C(=O)N4CCC(O)CC4)c4c3C[C@H]3C[C@@H]43)CC2)cccc1C(F)(F)F` [Example 2, 2-((3bR,4aR)-3-(4-hydroxypiperidine-1-carbonyl)-3b,4,4a,5-tetrahydro-1H-cyclopropa[3,4]cyclopenta[1,2-c]pyrazol-1-yl)-1-(4-(2-methyl-3-(trifluoromethyl)phenyl)piperidin-1-yl) ethanone], the IC50 worked out at 1.6 nM. As to `Cc1c(C2CCN(C(=O)Cn3nc(C(=O)N4CCN(C(=O)CO)CC4)c4c3C[C@H]3C[C@@H]43)CC2)cccc1C(F)(F)F` [Example 3, 2-hydroxy-1-(4-((3bR,4aR)-1-(2-(4-(2-methyl-3-(trifluoromethyl)phenyl)piperidin-1-yl)-2-oxoethyl)-3b,4,4a,5-tetrahydro-1H-cyclopropa[3,4]cyclopenta[1,2-c]pyrazole-3-carbonyl)piperazin-1-yl)ethanone], the half-inhibitory concentration (IC50) is 1.3 nM. As to `Cc1c(C2CCN(C(=O)Cn3nc(C(=O)N4CCO[C@H](CO)C4)c4c3C[C@H]3C[C@@H]43)CC2)cccc1C(F)(F)F` [Example 4, 2-((3bR,4aR)-3-((S)-2-(hydroxymethyl)morpholine-4-carbonyl)-3b,4,4a,5-tetrahydro-1H-cyclopropa[3,4]cyclopenta[1,2-c]pyrazol-1-yl)-1-(4-(2-methyl-3-(trifluoromethyl)phenyl)piperidin-1-yl)ethanone], the concentration for half-maximal inhibition (IC50) was determined as 3 nM.

In the case of `Cc1c(C2CCN(C(=O)Cn3nc(C(=O)N4CCO[C@@H](CO)C4)c4c3C[C@H]3C[C@@H]43)CC2)cccc1C(F)(F)F` [Example 5, 2-((3bR,4aR)-3-((R)-2-(hydroxymethyl)morpholine-4-carbonyl)-3b,4,4a,5-tetrahydro-1H-cyclopropa[3,4]cyclopenta[1,2-c]pyrazol-1-yl)-1-(4-(2-methyl-3-(trifluoromethyl)phenyl)piperidin-1-yl)ethanone], the IC50 amounted to 1.7 nM. For the molecule `Cc1c(C2CCN(C(=O)Cn3nc(C(=O)N4CCN(CC(N)=O)CC4)c4c3C[C@H]3C[C@@H]43)CC2)cccc1C(F)(F)F` [Example 6, 2-(4-((3bR,4aR)-1-(2-(4-(2-methyl-3-(trifluoromethyl)phenyl)piperidin-1-yl)-2-oxoethyl)-3b,4,4a,5-tetrahydro-1H-cyclopropa[3,4]cyclopenta[1,2-c]pyrazole-3-carbonyl)piperazin-1-yl)acetamide], the 50% inhibitory concentration (IC50) was 2.5 nM. For the molecule `Cc1cccc(C2(F)CCN(C(=O)Cn3nc(C(=O)N4CCC(OCCO)CC4)c4c3C[C@H]3C[C@@H]43)CC2)c1C` [Example 8, 1-(4-(2,3-dimethylphenyl)-4-fluoropiperidin-1-yl)-2-((3bR,4aR)-3-(4-(2-hydroxyethoxy)piperidine-1-carbonyl)-3b,4,4a,5-tetrahydro-1H-cyclopropa[3,4]cyclopenta[1,2-c]pyrazol-1-yl)ethanone], the IC50 stood at 1 nM. For `Cc1cccc(C2(F)CCN(C(=O)Cn3nc(C(=O)N4CCC(O)CC4)c4c3C[C@H]3C[C@@H]43)CC2)c1C` [Example 10, 1-(4-(2,3-dimethylphenyl)-4-fluoropiperidin-1-yl)-2-((3bR,4aR)-3-(4-hydroxypiperidine-1-carbonyl)-3b,4,4a,5-tetrahydro-1H-cyclopropa[3,4]cyclopenta[1,2-c]pyrazol-1-yl)ethanone], the IC50 turned out to be 3.4 nM. To `Cc1cccc(C2(F)CCN(C(=O)Cn3nc(C(=O)N4CCN(C(=O)CO)CC4)c4c3C[C@H]3C[C@@H]43)CC2)c1C` [Example 11, 1-(4-(2,3-dimethylphenyl)-4-fluoropiperidin-1-yl)-2-((3bR,4aR)-3-(4-(2-hydroxyacetyl)piperazine-1-carbonyl)-3b,4,4a,5-tetrahydro-1H-cyclopropa[3,4]cyclopenta[1,2-c]pyrazol-1-yl)ethanone] belongs 5.4 nM. Then `CC(=O)NC1CCN(C(=O)c2nn(CC(=O)N3CCC(F)(c4cccc(C)c4C)CC3)c3c2[C@@H]2C[C@@H]2C3)CC1` [Example 12, N-(1-((3bR,4aR)-1-(2-(4-(2,3-dimethylphenyl)-4-fluoropiperidin-1-yl)-2-oxoethyl)-3b,4,4a,5-tetrahydro-1H-cyclopropa[3,4]cyclopenta[1,2-c]pyrazole-3-carbonyl)piperidin-4-yl)acetamide], with 2.1 nM. As to `Cc1cccc(C2(F)CCN(C(=O)Cn3nc(C(=O)N4CCC(N)CC4)c4c3C[C@H]3C[C@@H]43)CC2)c1C` [Example 13, 2-((3bR,4aR)-3-(4-aminopiperidine-1-carbonyl)-3b,4,4a,5-tetrahydro-1H-cyclopropa[3,4]cyclopenta[1,2-c]pyrazol-1-yl)-1-(4-(2,3-dimethylphenyl)-4-fluoropiperidin-1-yl)ethanone], the 50% inhibitory concentration (IC50) stood at 90.4 nM. Take `O=C(Cn1nc(C(=O)N2CCC(O)CC2)c2c1CCC2)N1CCC(c2cccc3c2CC3)CC1` [Example 16, 1-(4-(bicyclo[4.2.0]octa-1(6),2,4-trien-2-yl)piperidin-1-yl)-2-(3-(4-hydroxypiperidine-1-carbonyl)-5,6-dihydrocyclopenta[c]pyrazol-1(4H)-yl)ethanone]: the IC50 turned out to be 25 nM.

As to `Cc1cccc(C2CCN(C(=O)Cn3nc(C(=O)N4CC[C@H](O)[C@@H](F)C4)c4c3C[C@H]3C[C@@H]43)CC2)c1C` [Example 23, 1-[4-(2,3-dimethylphenyl)piperidin-1-yl]-2-{(3bR,4aR)-3-[(3S,4S)-3-fluoro-4-hydroxypiperidine-1-carbonyl]-3b,4,4a,5-tetrahydro-1H-cyclopropa[3,4]cyclopenta[1,2-c]pyrazol-1-yl}ethan-1-one], the half-maximal inhibitory concentration (IC50) was determined as 1.1 nM.

Consider `Cc1cccc(C2CCN(C(=O)Cn3nc(C(=O)N4CC[C@@H](O)[C@H](F)C4)c4c3C[C@H]3C[C@@H]43)CC2)c1C` [Example 24, 1-[4-(2,3-dimethylphenyl)piperidin-1-yl]-2-{(3bR,4aR)-3-[(3R,4R)-3-fluoro-4-hydroxypiperidine-1-carbonyl]-3b,4,4a,5-tetrahydro-1H-cyclopropa[3,4]cyclopenta[1,2-c]pyrazol-1-yl}ethan-1-one], for which the IC50 worked out at 1.2 nM. Consider `Cc1cccc(C2CCN(C(=O)Cn3nc(C(=O)N4CC[C@@H](O)[C@@H](F)C4)c4c3C[C@@H]3C[C@H]43)CC2)c1C` [Example 27, 1-[4-(2,3-dimethylphenyl)piperidin-1-yl]-2-{(3bS,4aS)-3-[(3S,4R)-3-fluoro-4-hydroxypiperidine-1-carbonyl]-3b,4,4a,5-tetrahydro-1H-cyclopropa[3,4]cyclopenta[1,2-c]pyrazol-1-yl}ethan-1-one], for which the IC50 worked out at 36.8 nM.

As to `Cc1cccc(C2CCN(C(=O)Cn3nc(C(=O)N4CCN(C(=O)CO)CC4)c4c3C[C@@H]3C[C@H]43)CC2)c1C` [Example 28, 1-[4-(2,3-dimethylphenyl)piperidin-1-yl]-2-{(3bS,4aS)-3-[4-(hydroxyacetyl)piperazine-1-carbonyl]-3b,4,4a,5-tetrahydro-1H-cyclopropa[3,4]cyclopenta[1,2-c]pyrazol-1-yl}ethan-1-one], the IC50 is 41.2 nM. As for `Cc1cccc(C2CCN(C(=O)Cn3nc(C(=O)N4CC[C@H](O)[C@H](F)C4)c4c3C[C@@H]3C[C@H]43)CC2)c1C` [Example 29, 1-[4-(2,3-dimethylphenyl)piperidin-1-yl]-2-{(3bS,4aS)-3-[(3R,4S)-3-fluoro-4-hydroxypiperidine-1-carbonyl]-3b,4,4a,5-tetrahydro-1H-cyclopropa[3,4]cyclopenta[1,2-c]pyrazol-1-yl}ethan-1-one], the half-inhibitory concentration (IC50) is 54.2 nM. Regarding `C[C@@H]1CN(C(=O)c2nn(CC(=O)N3CCC(C4CCCCC4)CC3)c3c2CCC3)C[C@H](C)O1` [Example 30, 1-(4-cyclohexylpiperidin-1-yl)-2-{3-[(2R,6S)-2,6-dimethylmorpholine-4-carbonyl]-5,6-dihydrocyclopenta[c]pyrazol-1(4H)-yl}ethan-1-one], the IC50 was found to be 299 nM.
